Measured values published in PubChem BioAssay (NCI).
Values joined by “and” are separate entries in the source; they are usually repeats but may differ in a detail not shown here. Equal entries are not always repeated.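 In this assay, cells in 96-well plates receive the compound at five concentrations for 48 hours. Endpoints are linearly interpolated between the surrounding concentrations. The concentration for 50% growth inhibition is given as GI50. TGI: concentration producing complete growth inhibition.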

Tests used:
Assay in all cases: NCI tumour cell line growth inhibition, 48 h
LOX IMVI melanoma = tested on: LOX IMVI melanoma
TK-10 renal = tested on: TK-10 renal
CAKI-1 renal = tested on: CAKI-1 renal
SK-MEL-2 melanoma = tested on: SK-MEL-2 melanoma
U251 CNS = tested on: U251 CNS
UACC-62 melanoma = tested on: UACC-62 melanoma
RPMI-8226 leukemia = tested on: RPMI-8226 leukemia
MALME-3M melanoma = tested on: MALME-3M melanoma
HL-60(TB) leukemia = tested on: HL-60(TB) leukemia
T-47D breast = tested on: T-47D breast
OVCAR-4 ovarian = tested on: OVCAR-4 ovarian
UO-31 renal = tested on: UO-31 renal
OVCAR-5 ovarian = tested on: OVCAR-5 ovarian
EKVX NSCLC = tested on: EKVX NSCLC
DMS 114 small cell lung = tested on: DMS 114 small cell lung
M19-MEL melanoma = tested on: M19-MEL melanoma
NCI-H460 lung = tested on: NCI-H460 lung
SF-295 CNS = tested on: SF-295 CNS
UACC-257 melanoma = tested on: UACC-257 melanoma
SR leukemia = tested on: SR leukemia
COLO 205 colon = tested on: COLO 205 colon
BT-549 breast = tested on: BT-549 breast
MDA-N = tested on: MDA-N
IGROV1 ovarian = tested on: IGROV1 ovarian
MCF7 breast = tested on: MCF7 breast
A498 renal = tested on: A498 renal
DU-145 prostate = tested on: DU-145 prostate
HOP-92 NSCLC = tested on: HOP-92 NSCLC
SF-539 CNS = tested on: SF-539 CNS
CCRF-CEM leukemia = tested on: CCRF-CEM leukemia
KM20L2 colon = tested on: KM20L2 colon
MDA-MB-231 breast = tested on: MDA-MB-231 breast
ACHN renal = tested on: ACHN renal
SK-OV-3 ovarian = tested on: SK-OV-3 ovarian
NCI/ADR-RES ovarian = tested on: NCI/ADR-RES ovarian

## COc1cc(C2c3cc4c(cc3[C@@H](Nc3ccc(F)cc3)C3COC(=O)[C@H]23)OCO4)cc(OC)c1O (stereo not given in full)
LOX IMVI melanoma
  GI50: 0.44 µM
  TGI: 10.5 µM
TK-10 renal
  TGI: 14.8 µM
CAKI-1 renal
  GI50: 0.29 µM
  TGI: 4.68 µM
SK-MEL-2 melanoma
  TGI: 19.2 µM
U251 CNS
  GI50: 0.451 µM
  TGI: 8.9 µM
UACC-62 melanoma
  GI50: 0.941 µM
  TGI: 7.78 µM
RPMI-8226 leukemia
  GI50: 0.531 µM
  TGI: 17.1 µM
MALME-3M melanoma
  TGI: 13.4 µM
HL-60(TB) leukemia
  GI50: 0.181 µM and 0.631 µM
  TGI: 0.839 µM and 6.02 µM
T-47D breast
  TGI: 61.3 µM
OVCAR-4 ovarian
  TGI: 49.2 µM
UO-31 renal
  GI50: 0.753 µM
  TGI: 8.72 µM
OVCAR-5 ovarian
  TGI: 37 µM
EKVX NSCLC
  TGI: 12.5 µM
DMS 114 small cell lung
  GI50: 0.997 µM
  TGI: 9.63 µM
M19-MEL melanoma
  TGI: 42.8 µM
NCI-H460 lung
  GI50: 0.124 µM
  TGI: 4.11 µM
SF-295 CNS
  GI50: 0.548 µM
  TGI: 7.26 µM
UACC-257 melanoma
  TGI: 31.3 µM
SR leukemia
  GI50: 0.0567 µM
  TGI: 0.612 µM and 4.27 µM
COLO 205 colon
  TGI: 15.6 µM
BT-549 breast
  TGI: 8.39 µM
MDA-N
  TGI: > 100 µM
IGROV1 ovarian
  TGI: 42.2 µM
MCF7 breast
  TGI: > 65.2 µM
A498 renal
  GI50: 0.878 µM
  TGI: 7.84 µM
DU-145 prostate
  TGI: 8.89 µM
HOP-92 NSCLC
  TGI: 24.8 µM
SF-539 CNS
  GI50: 0.708 µM
  TGI: 6.02 µM
CCRF-CEM leukemia
  GI50: 0.201 µM and 0.347 µM
  TGI: 19.6 µM
KM20L2 colon
  TGI: 19.8 µM
MDA-MB-231 breast
  TGI: 17.4 µM
ACHN renal
  GI50: 0.326 µM
  TGI: 3.39 µM
SK-OV-3 ovarian
  TGI: 21 µM
NCI/ADR-RES ovarian
  TGI: 45.7 µM
